Laboratory results published in patent US20240166646A1, “1H-PYRROLO[2,3-B]PYRIDINE DERIVATIVES AS BCL-2 INHIBITORS FOR THE TREATMENT OF NEOPLASTIC AND AUTOIMMUNE DISEASES” (Newave Pharmaceutical Inc., priority 2020, published 2024).
Counter-ions that a name gives are not always drawn.

Tests used:
[1] = molecular target: Bcl-2 (Homo sapiens (Human), UniProt P10415); experiment: Bcl-2 competition binding (fluorescence polarization) assay; settings: fluorescein labeled BH3 peptide 15 nM, Bcl-2 protein 30 nM, 3 hours of incubation at room temperature
Method in brief: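 Fluorescence polarization competition of 15 nM labeled 23-mer BH3 peptide with 30 nM purified Bcl-2, in 20 mM Hepes pH 7.0, 50 mM KCl, 5 mM MgCl2, 20 mM Na2MoO4, 0.1 mg/ml bovine gamma globulin, 0.01% NP40. Compounds 20 μM to 2 nM final; mP read after 3 h at room temperature, background-subtracted. IC50 from sigmoidal dose-response fit.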

[2] = tested on: BCL-2-dependent acute lymphoblastic leukemia (ALL) cell line RS4; 11 with G101V mutation; experiment: In vitro anti-proliferation assay (ATPlite) in RS4; 11 with G101V mutation; format: cell-based; settings: about 72 hours incubation, medium with 5% FBS or 10% normal human serum, ATPlite luminescence
Method in brief: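 About 1×10^4 cells per well exposed to a compound dose range for about 72 h in medium with 5% FBS or 10% normal human serum. ATP content read by ATPlite luminescence after lysis. IC50 derived from dose-response.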

Sequence of Bcl-2 (P10415 whole entry): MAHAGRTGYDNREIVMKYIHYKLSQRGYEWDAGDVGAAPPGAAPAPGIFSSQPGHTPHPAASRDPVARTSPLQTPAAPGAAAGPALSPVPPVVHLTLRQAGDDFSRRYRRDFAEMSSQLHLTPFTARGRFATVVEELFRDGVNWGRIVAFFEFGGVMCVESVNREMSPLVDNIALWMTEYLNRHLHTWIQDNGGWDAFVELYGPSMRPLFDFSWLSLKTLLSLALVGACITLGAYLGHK

SMILES	IC50 [1]	IC50 ([2]; RS4-11)	IC50 [2]	IC50 ([1]; hydrochloride)	IC50 ([2]; hydrochloride)
CC(C)Oc1ccccc1[C@@H]1CCCN1C1CC2(CCN(c3ccc(C(=O)NS(=O)(=O)c4ccc(NCC5CCOCC5)c([N+](=O)[O-])c4)c(N4c5cc6cc[nH]c6nc5O[C@@H]5CCOC[C@H]54)c3)CC2)C1 [Example 59, 4-(2-((S)-2-(2-isopropoxyphenyl)pyrrolidin-1-yl)-7-azaspiro[3.5]nonan-7-yl)-N-((3-nitro-4-(((tetrahydro-2H-pyran-4-yl)methyl)amino)phenyl)sulfonyl)-2-((5aR,9aR)-5a,8,9,9a-tetrahydro-6H-pyrano[4,3-b]pyrrolo[3′,2′:5,6]pyrido[3,2-e][1,4]oxazin-5(1H)-yl)benzamide]	0.101 nM	124 nM			
CC(C)c1cc(F)ccc1[C@@H]1CCCN1C1CC2(CCN(c3ccc(C(=O)NS(=O)(=O)c4ccc(NCC5CCOCC5)c([N+](=O)[O-])c4)c(N4c5cc6cc[nH]c6nc5O[C@@H]5COC[C@H]54)c3)CC2)C1 [Example 60, 2-[(11R,15S)-13,16-dioxa-2,4,10-triazatetracyclo[7.7.0.0^{3,7}.0^{11,15}]hexadeca-1(9),2,5,7-tetraen-10-yl]-4-{2-[(2S)-2-(4-fluoro-2-isopropylphenyl)pyrrolidin-1-yl]-7-azaspiro[3.5]nonan-7-yl}-N-{3-nitro-4-[(oxan-4-ylmethyl)amino]benzenesulfonyl}benzamide]	0.341 nM		62.4 nM		
Cc1ccccc1C1CC(C)(C)CN1C1CC2(CCN(c3ccc(C(=O)NS(=O)(=O)c4ccc(NCC5CCOCC5)c([N+](=O)[O-])c4)c(N4c5cc6cc[nH]c6nc5O[C@@H]5COC[C@H]54)c3)CC2)C1 (stereo partly drawn) [Example 61, 4-{2-[4,4-dimethyl-2-(2-methylphenyl)pyrrolidin-1-yl]-7-azaspiro[3.5]nonan-7-yl}-2-[(11R,15S)-13,16-dioxa-2,4,10-triazatetracyclo[7.7.0.0^{3,7}.0^{11,15}]hexadeca-1(9),2,5,7-tetraen. 10-yl]-N-{3-nitro-4-[(oxan-4-ylmethyl)amino]benzenesulfonyl}benzamide]	0.707 nM		130 nM		
CC(C)Oc1ccccc1[C@@H]1CCCN1C1CC2(CCN(c3ccc(C(=O)NS(=O)(=O)c4ccc(NCC5CCOCC5)c([N+](=O)[O-])c4)c(N4c5cc6cc[nH]c6nc5O[C@H]5COCC[C@@H]54)c3)CC2)C1 [Example 62, 4-(2-((S)-2-(2-isopropoxyphenyl)pyrrolidin-1-yl)-7-azaspiro[3.5]nonan-7-yl)-N-((3-nitro-4-(((tetrahydro-2H-pyran-4-yl)methyl)amino)phenyl)sulfonyl)-2-((5aS,9aR)-6,7,9,9a-tetrahydro. 1H-pyrano[3,4-b]pyrrolo[3′,2′:5,6]pyrido[3,2-e][1,4]oxazin-5(5aH)-yl)benzamide hydrochloride]	0.41 nM		121 nM		
CC(C)c1ccsc1[C@@H]1CCCN1C1CC2(CCN(c3ccc(C(=O)NS(=O)(=O)c4ccc(NCC5CCOCC5)c([N+](=O)[O-])c4)c(N4c5cc6cc[nH]c6nc5O[C@@H]5COC[C@H]54)c3)CC2)C1 [Example 63, 4-(2-((S)-2-(3-isopropylthiophen-2-yl)pyrrolidin-1-yl)-7-azaspiro[3.5]nonan-7-yl)-N-((3-nitro-4-(((tetrahydro-2H-pyran-4-yl)methyl)amino)phenyl)sulfonyl)-2-((5aR,8aS)-5a,6,8,8a-tetrahydrofuro[3,4-b]pyrrolo[3′,2′:5,6]pyrido[3,2-e][1,4]oxazin-5(1H)-yl)benzamide hydrochloride]	0.314 nM	49.6 nM			
CC(C)Oc1ccccc1[C@@H]1CCCN1C1CC2(CCN(c3ccc(C(=O)NS(=O)(=O)c4ccc(NCC5CCOCC5)c([N+](=O)[O-])c4)c(N4c5cc6cc[nH]c6nc5O[C@H]5COCC[C@H]54)c3)CC2)C1 [Example 64, 2-[(3R,8R)-2,5-dioxa-9,15,17-triazatetracyclo[8.7.0.0^{3,8}.0^{12,16}]heptadeca-1(10),11,13,16-tetraen-9-yl]-4-{2-[(2S)-2-(2-isopropoxyphenyl)pyrrolidin-1-yl]-7-azaspiro[3.5]nonan-7-yl}-N-{3-nitro-4-[(oxan-4-ylmethyl)amino]benzenesulfonyl}benzamide]	0.341 nM		62.4 nM		
Cc1ccccc1[C@@H]1COCCCN1C1CC2(CCN(c3ccc(C(=O)NS(=O)(=O)c4ccc(NCC5CCOCC5)c([N+](=O)[O-])c4)c(N4c5cc6cc[nH]c6nc5O[C@@H]5COC[C@H]54)c3)CC2)C1 [Example 65, N-((3-nitro-4-(((tetrahydro-2H-pyran-4-yl)methyl)amino)phenyl)sulfonyl)-2-((5aR,8aS)-5a,6,8,8a-tetrahydrofuro[3,4-b]pyrrolo[3′,2′:5,6]pyrido[3,2-e][1,4]oxazin-5(1H)-yl)-4-(2-((R)-3-(o-tolyl)-1,4-oxazepan-4-yl)-7-azaspiro[3.5]nonan-7-yl)benzamide]	0.425 nM	> 1000 nM			
Cc1ccccc1[C@H]1COCCCN1C1CC2(CCN(c3ccc(C(=O)NS(=O)(=O)c4ccc(NCC5CCOCC5)c([N+](=O)[O-])c4)c(N4c5cc6cc[nH]c6nc5O[C@@H]5COC[C@H]54)c3)CC2)C1 [Example 66, 2-[(11R,15S)-13,16-dioxa-2,4,10-triazatetracyclo[7.7.0.0^{3,7}.0^{11,15}]hexadeca-1(9),2,5,7-tetraen-10-yl]-4-{2-[(3S)-3-(2-methylphenyl)-1,4-oxazepan-4-yl]-7-azaspiro[3.5]nonan-7-yl}-N-{3-nitro-4-[(oxan-4-ylmethyl)amino]benzenesulfonyl}benzamide]	0.564 nM		296 nM		
CC(C)Oc1ccccc1[C@@H]1CCCN1C1CC2(CCN(c3ccc(C(=O)NS(=O)(=O)c4ccc(NCC5CCOCC5)c([N+](=O)[O-])c4)c(N4c5cc6cc[nH]c6nc5O[C@H]5COCC[C@@H]54)c3)CC2)C1 [Example 67, 2-[(3R,8S)-2,5-dioxa-9,15,17-triazatetracyclo[8.7.0.0^{3,8}.0^{12,16}]heptadeca-1(10),11,13,16-tetraen-9-yl]-4-{2-[(2S)-2-(2-isopropoxyphenyl)pyrrolidin-1-yl]-7-azaspiro[3.5]nonan-7-yl}-N-{3-nitro-4-[(oxan-4-ylmethyl)amino]benzenesulfonyl}benzamide hydrochloride]				0.229 nM	50.6 nM
Cc1ccccc1[C@@H]1CCCN1C1CC2(CCN(c3ccc(C(=O)NS(=O)(=O)c4ccc(NCC5CCOCC5)c([N+](=O)[O-])c4)c(N4C[C@H]5CCOC[C@@H]5Oc5nc6[nH]ccc6cc54)c3)CC2)C1 [Example 68, 2-[(3R,8R)-2,5-dioxa-10,16,18-triazatetracyclo[9.7.0.0^{3,8}.0^{13,17}]octadeca-1(11),12,14,17-tetraen-10-yl]-4-{2-[(2S)-2-(2-methylphenyl)pyrrolidin-1-yl]-7-azaspiro[3.5]nonan-7-yl}-N-{3-nitro-4-[(oxan-4-ylmethyl)amino]benzenesulfonyl}benzamide]	0.303 nM		40.7 nM		
